Measurements reported in patent publication US20160220569A1, “CDK4/6 Inhibitor Dosage Formulations For The Protection Of Hematopoietic Stem And Progenitor Cells During Chemotherapy” (G1 Therapeutics, Inc., priority 2015, published 2016).
“And” between values parts separate entries of the source, which are not always exact repeats. Equal values may be shown once. Read-outs that look alike come from different tables or passages of the source.

Experiment: Topotecan PK following Compound 1 infusion
Assay type: in vivo, human
Conditions: human, plasma, intravenous
Description: Blood samples were obtained prior to dosing, at the end of the 30-minute infusion (EOI), and at 0.5, 1, 1.5, 2, 2.5, 4, 6, 8, and 24 hours after the end of infusion. Analysis of plasma concentration versus time data for calculation of standard pharmacokinetic (PK) parameters following intravenous infusion administration was conducted using Phoenix WinNonlin version 6.3 using a nominal infusion duration and scheduled blood sampling times. In Cohort 2 there were 3 subjects who received 1.25 mg/m^2 of topotecan once daily on Days 1 to 5. In Cohort 3 there were 4 subjects who received 0.75 mg/m^2 of topotecan once daily on Days 1 to 5.

`CC[C@@]1(O)C(=O)OCc2c1cc1n(c2=O)Cc2cc3c(CN(C)C)c(O)ccc3nc2-1.Cl` [topotecan, (S)-10-[(dimethylamino)methyl]-4-ethyl-4,9-dihydroxy-1H-pyrano[3′,4′:6,7]indolizino[1,2-b]quinoline-3,14(4H,12H)-dione monohydrochloride] showed a Cmax (Topotecan 0.75 mg/m^2 (Cohort 3) with Compound 1 200 mg/m^2, Day 1, Mean, read-out: Cmax) of 27.3 ng/mL, a half-life (Topotecan 0.75 mg/m^2 (Cohort 3) with Compound 1 200 mg/m^2, Day 1, Mean, read-out: t½ (converted)) of 4.33 h and an AUC (Topotecan 0.75 mg/m^2 (Cohort 3) with Compound 1 200 mg/m^2, Day 1, Median, read-out: AUC24.5) of 89.1 ng·h/mL. For the same compound, the AUC(0-inf) (Topotecan 0.75 mg/m^2 (Cohort 3) with Compound 1 200 mg/m^2, Day 1, Median, read-out: AUCinf (converted)) was 90.8 ng·h/mL and 0.198 µM·h, the AUC (Topotecan 0.75 mg/m^2 (Cohort 3) with Compound 1 200 mg/m^2, Day 1, Median, read-out: AUCx5 (converted)) was 0.992 µM·h and the Cmax (Topotecan 0.75 mg/m^2 (Cohort 3) with Compound 1 200 mg/m^2, Day 1, Median, read-out: Cmax) was 26.4 ng/mL. For the same compound, the half-life (Topotecan 0.75 mg/m^2 (Cohort 3) with Compound 1 200 mg/m^2, Day 1, Median, read-out: t½ (converted)) was 4.3 h, the AUC (Topotecan 0.75 mg/m^2 (Cohort 3) with Compound 1 200 mg/m^2, Day 1, individual subjects, read-out: AUC24.5) was 83.5 ng·h/mL and the AUC(0-inf) (Topotecan 0.75 mg/m^2 (Cohort 3) with Compound 1 200 mg/m^2, Day 1, individual subjects, read-out: AUCinf (converted)) was 84.8 ng·h/mL and 0.185 µM·h. The AUC (Topotecan 0.75 mg/m^2 (Cohort 3) with Compound 1 200 mg/m^2, Day 1, individual subjects, read-out: AUCx5 (converted)) was 0.927 µM·h, the half-life (Topotecan 0.75 mg/m^2 (Cohort 3) with Compound 1 200 mg/m^2, Day 1, individual subjects, read-out: t½ (converted)) was 4.32 h and the AUC (Topotecan 0.75 mg/m^2 (Cohort 3) with Compound 1 200 mg/m^2, Day 4, Mean, read-out: AUCτ (converted)) was 92.4 ng·h/mL and 0.202 µM·h. The Cmax (Topotecan 0.75 mg/m^2 (Cohort 3) with Compound 1 200 mg/m^2, Day 4, Mean, read-out: Cmax) was 24.5 ng/mL, the half-life (Topotecan 0.75 mg/m^2 (Cohort 3) with Compound 1 200 mg/m^2, Day 4, Mean, read-out: t½ (converted)) was 4.78 h and the AUC (Topotecan 0.75 mg/m^2 (Cohort 3) with Compound 1 200 mg/m^2, Day 4, Median, read-out: AUCτ (converted)) was 91.7 ng·h/mL and 0.2 µM·h. For the same compound, the Cmax (Topotecan 0.75 mg/m^2 (Cohort 3) with Compound 1 200 mg/m^2, Day 4, Median, read-out: Cmax) was 24.5 ng/mL, the half-life (Topotecan 0.75 mg/m^2 (Cohort 3) with Compound 1 200 mg/m^2, Day 4, Median, read-out: t½ (converted)) was 4.7 h and the AUC (Topotecan 0.75 mg/m^2 (Cohort 3) with Compound 1 200 mg/m^2, Day 4, individual subjects, read-out: AUCτ (converted)) was 83.7 ng·h/mL and 0.183 µM·h. It also gave a Cmax (Topotecan 0.75 mg/m^2 (Cohort 3) with Compound 1 200 mg/m^2, Day 4, individual subjects, read-out: Cmax) of 26.4 ng/mL, a half-life (Topotecan 0.75 mg/m^2 (Cohort 3) with Compound 1 200 mg/m^2, Day 4, individual subjects, read-out: t½ (converted)) of 4.63 h and an AUC (Topotecan 1.25 mg/m^2 (Cohort 2) with Compound 1 200 mg/m^2, Day 1, Mean, read-out: AUC24.5) of 175 ng·h/mL. For the same compound, the AUC(0-inf) (Topotecan 1.25 mg/m^2 (Cohort 2) with Compound 1 200 mg/m^2, Day 1, Mean, read-out: AUCinf (converted)) was 180 ng·h/mL and 0.392 µM·h, the AUC (Topotecan 1.25 mg/m^2 (Cohort 2) with Compound 1 200 mg/m^2, Day 1, Mean, read-out: AUCx5 (converted)) was 1.97 µM·h and the Cmax (Topotecan 1.25 mg/m^2 (Cohort 2) with Compound 1 200 mg/m^2, Day 1, Mean, read-out: Cmax) was 63.7 ng/mL. The half-life (Topotecan 1.25 mg/m^2 (Cohort 2) with Compound 1 200 mg/m^2, Day 1, Mean, read-out: t½ (converted)) was 4.93 h, the AUC (Topotecan 1.25 mg/m^2 (Cohort 2) with Compound 1 200 mg/m^2, Day 1, Median, read-out: AUC24.5) was 159 ng·h/mL and the AUC(0-inf) (Topotecan 1.25 mg/m^2 (Cohort 2) with Compound 1 200 mg/m^2, Day 1, Median, read-out: AUCinf (converted)) was 162 ng·h/mL and 0.355 µM·h. It also gave an AUC (Topotecan 1.25 mg/m^2 (Cohort 2) with Compound 1 200 mg/m^2, Day 1, Median, read-out: AUCx5 (converted)) of 1.77 µM·h, a Cmax (Topotecan 1.25 mg/m^2 (Cohort 2) with Compound 1 200 mg/m^2, Day 1, Median, read-out: Cmax) of 57.7 ng/mL and a half-life (Topotecan 1.25 mg/m^2 (Cohort 2) with Compound 1 200 mg/m^2, Day 1, Median, read-out: t½ (converted)) of 4.92 h. The half-life (Topotecan 1.25 mg/m^2 (Cohort 2) with Compound 1 200 mg/m^2, Day 1, individual subjects, read-out: t½ (converted)) was 4.78 h, the AUC (Topotecan 1.25 mg/m^2 (Cohort 2) with Compound 1 200 mg/m^2, Day 4, Mean, read-out: AUCτ (converted)) was 171 ng·h/mL and 0.375 µM·h and the Cmax (Topotecan 1.25 mg/m^2 (Cohort 2) with Compound 1 200 mg/m^2, Day 4, Mean, read-out: Cmax) was 59.6 ng/mL. The AUC (Topotecan 1.25 mg/m^2 (Cohort 2) with Compound 1 200 mg/m^2, Day 4, Median, read-out: AUCτ (converted)) was 158 ng·h/mL and 0.345 µM·h, the Cmax (Topotecan 1.25 mg/m^2 (Cohort 2) with Compound 1 200 mg/m^2, Day 4, Median, read-out: Cmax) was 41.8 ng/mL and the half-life (Topotecan 1.25 mg/m^2 (Cohort 2) with Compound 1 200 mg/m^2, Day 4, Median, read-out: t½ (converted)) was 5.39 h. The AUC (Topotecan 1.25 mg/m^2 (Cohort 2) with Compound 1 200 mg/m^2, Day 4, individual subjects, read-out: AUCτ (converted)) was 158 ng·h/mL and 0.345 µM·h, the half-life (Topotecan 1.25 mg/m^2 (Cohort 2) with Compound 1 200 mg/m^2, Day 4, individual subjects, read-out: t½ (converted)) was 5.39 h and the AUC (Topotecan […]^2 (Cohort 1) with Compound 1 200 mg/m^2, Day 1, Mean, read-out: AUC24.5) was 150 ng·h/mL. For the same compound, the AUC (Topotecan […]^2 (Cohort 1) with Compound 1 200 mg/m^2, Day 1, Mean, read-out: AUCx5 (converted)) was 1.66 µM·h, the Cmax (Topotecan […]^2 (Cohort 1) with Compound 1 200 mg/m^2, Day 1, Mean, read-out: Cmax) was 69.5 ng/mL and the half-life (Topotecan […]^2 (Cohort 1) with Compound 1 200 mg/m^2, Day 1, Mean, read-out: t½ (converted)) was 4.33 h. It also gave an AUC (Topotecan […]^2 (Cohort 1) with Compound 1 200 mg/m^2, Day 1, Median, read-out: AUC24.5) of 150 ng·h/mL, an AUC (Topotecan […]^2 (Cohort 1) with Compound 1 200 mg/m^2, Day 1, Median, read-out: AUCx5 (converted)) of 1.66 µM·h and a Cmax (Topotecan […]^2 (Cohort 1) with Compound 1 200 mg/m^2, Day 1, Median, read-out: Cmax) of 69.5 ng/mL. The half-life (Topotecan […]^2 (Cohort 1) with Compound 1 200 mg/m^2, Day 1, Median, read-out: t½ (converted)) was 4.33 h, the AUC (Topotecan […]^2 (Cohort 1) with Compound 1 200 mg/m^2, Day 1, individual subjects, read-out: AUC24.5) was 130 ng·h/mL and the AUC (Topotecan […]^2 (Cohort 1) with Compound 1 200 mg/m^2, Day 1, individual subjects, read-out: AUCx5 (converted)) was 1.44 µM·h. For the same compound, the half-life (Topotecan […]^2 (Cohort 1) with Compound 1 200 mg/m^2, Day 1, individual subjects, read-out: t½ (converted)) was 4.56 h, the Cmax (Topotecan […]^2 (Cohort 1) with Compound 1 200 mg/m^2, Day 4, Mean, read-out: Cmax) was 89.3 ng/mL and the half-life (Topotecan […]^2 (Cohort 1) with Compound 1 200 mg/m^2, Day 4, Mean, read-out: t½ (converted)) was 4.87 h. For the same compound, the Cmax (Topotecan […]^2 (Cohort 1) with Compound 1 200 mg/m^2, Day 4, Median, read-out: Cmax) was 89.3 ng/mL, the half-life (Topotecan […]^2 (Cohort 1) with Compound 1 200 mg/m^2, Day 4, Median, read-out: t½ (converted)) was 4.87 h and the half-life (Topotecan […]^2 (Cohort 1) with Compound 1 200 mg/m^2, Day 4, individual subjects, read-out: t½ (converted)) was 5.11 h. For the same compound, the AUC(0-inf) (topotecan 0.75 mg/m^2 (Cohort 3) after Compound 1 200 mg/m^2, Day 1, mean, read-out: AUCinf averaged) was 94.4 ng·h/mL, the Cmax (topotecan 0.75 mg/m^2 (Cohort 3) after Compound 1 200 mg/m^2, Day 1, mean, read-out: Cmax averaged) was 27.3 ng/mL and the half-life (topotecan 0.75 mg/m^2 (Cohort 3) after Compound 1 200 mg/m^2, Day 1, mean, read-out: Half-lives averaged (converted)) was 4.33 h. The Cmax (topotecan 0.75 mg/m^2 (Cohort 3) after Compound 1 200 mg/m^2, Day 4, mean, read-out: Cmax averaged) was 24.5 ng/mL, the AUC(0-inf) (topotecan 1.25 mg/m^2 (Cohort 2) after Compound 1 200 mg/m^2, Day 1, mean, read-out: AUCinf averaged) was 180 ng·h/mL and the Cmax (topotecan 1.25 mg/m^2 (Cohort 2) after Compound 1 200 mg/m^2, Day 1, mean, read-out: Cmax averaged) was 63.7 ng/mL. The half-life (topotecan 1.25 mg/m^2 (Cohort 2) after Compound 1 200 mg/m^2, Day 1, mean, read-out: Half-lives averaged (converted)) was 4.93 h, the Cmax (topotecan 1.25 mg/m^2 (Cohort 2) after Compound 1 200 mg/m^2, Day 4, mean, read-out: Cmax averaged) was 59.6 ng/mL and the AUC(0-inf) (topotecan […]^2 (Cohort 1) after Compound 1 200 mg/m^2, Day 1, mean, read-out: AUCinf averaged) was 152 ng·h/mL. The Cmax (topotecan […]^2 (Cohort 1) after Compound 1 200 mg/m^2, Day 1, mean, read-out: Cmax averaged) was 69.5 ng/mL, the half-life (topotecan […]^2 (Cohort 1) after Compound 1 200 mg/m^2, Day 1, mean, read-out: Half-lives averaged (converted)) was 4.33 h and the Cmax (topotecan […]^2 (Cohort 1) after Compound 1 200 mg/m^2, Day 4, mean, read-out: Cmax averaged) was 89.3 ng/mL. It also gave a half-life (read-out: t½ (converted)) of 5.45 h.
